US9290777B2, “Putative cytokinin receptor and methods for use thereof” (NATIONAL UNIVERSITY OF SINGAPORE, priority 2007, dated 2016)
Entries after “also recorded” stand apart in the source; their conditions may differ.

Test system: STM
Experiment: qRT-PCR of cytokinin responsive gene after BA pulse, fold change vs untreated wild type
Type: cell-based, Arabidopsis thaliana

Compound: c1ccc(CNc2ncnc3nc[nH]c23)cc1 [benzyladenine]
- STM transcripts in OE lines compared to untreated wild type (5 μM BA, 1 h, OE lines (e.g. OE1, OE12), listed as BA): less than a two fold change; also recorded: no significant difference
- STM fold change (BA 0.01 μM, 5 min, AS1, ↑ up): 3.23↑
- STM fold change (BA 0.01 μM, 5 min, AS8, ↑ up): 5.2↑
- STM fold change (BA 0.01 μM, 5 min, AS21, ↑ up): 7.1↑
- STM fold change (BA 0.01 μM, 5 min, OE1, ↓ down): 3.41↓
- STM fold change (BA 0.01 μM, 5 min, OE12, ↓ down): 4.97↓
- STM fold change (BA 0.01 μM, 5 min, OE18, ↓ down): 6.23↓
- STM fold change (BA 0.01 μM, 5 min, Wild type, ↑ up): 2.45↑
- STM fold change (BA 0.01 μM, 15 min, AS1, ↑ up): 3.67↑
- STM fold change (BA 0.01 μM, 15 min, AS8, ↑ up): 5.58↑
- STM fold change (BA 0.01 μM, 15 min, AS21, ↑ up): 7.48↑
- STM fold change (BA 0.01 μM, 15 min, OE1, ↓ down): 3.23↓
- STM fold change (BA 0.01 μM, 15 min, OE12, ↓ down): 4.65↓
- STM fold change (BA 0.01 μM, 15 min, OE18, ↓ down): 6.02↓
- STM fold change (BA 0.01 μM, 15 min, Wild type, ↑ up): 2.54↑
- STM fold change (BA 0.01 μM, 30 min, AS1, ↑ up): 3.91↑
- STM fold change (BA 0.01 μM, 30 min, AS8, ↑ up): 5.95↑
- STM fold change (BA 0.01 μM, 30 min, AS21, ↑ up): 7.69↑
- STM fold change (BA 0.01 μM, 30 min, OE1, ↓ down): 3.01↓
- STM fold change (BA 0.01 μM, 30 min, OE12, ↓ down): 4.31↓
- STM fold change (BA 0.01 μM, 30 min, OE18, ↓ down): 5.91↓
- STM fold change (BA 0.01 μM, 30 min, Wild type, ↑ up): 3.01↑
- STM fold change (BA 0.01 μM, 1 h, AS1, ↑ up): 4.1↑
- STM fold change (BA 0.01 μM, 1 h, AS8, ↑ up): 6.06↑
- STM fold change (BA 0.01 μM, 1 h, AS21, ↑ up): 8.05↑
- STM fold change (BA 0.01 μM, 1 h, OE1, ↓ down): 2.81↓
- STM fold change (BA 0.01 μM, 1 h, OE12, ↓ down): 3.96↓
- STM fold change (BA 0.01 μM, 1 h, OE18, ↓ down): 5.82↓
- STM fold change (BA 0.01 μM, 1 h, Wild type, ↑ up): 3.2↑
- STM fold change (BA 0.1 μM, 5 min, AS1, ↑ up): 4.24↑
- STM fold change (BA 0.1 μM, 5 min, AS8, ↑ up): 6.22↑
- STM fold change (BA 0.1 μM, 5 min, AS21, ↑ up): 8.21↑
- STM fold change (BA 0.1 μM, 5 min, OE1, ↓ down): 3.2↓
- STM fold change (BA 0.1 μM, 5 min, OE12, ↓ down): 3.81↓
- STM fold change (BA 0.1 μM, 5 min, OE18, ↓ down): 5.79↓
- STM fold change (BA 0.1 μM, 5 min, Wild type, ↑ up): 3.56↑
- STM fold change (BA 0.1 μM, 15 min, AS1, ↑ up): 4.49↑
- STM fold change (BA 0.1 μM, 15 min, AS8, ↑ up): 6.39↑
- STM fold change (BA 0.1 μM, 15 min, AS21, ↑ up): 8.36↑
- STM fold change (BA 0.1 μM, 15 min, OE1, ↓ down): 3.14↓
- STM fold change (BA 0.1 μM, 15 min, OE12, ↓ down): 3.73↓
- STM fold change (BA 0.1 μM, 15 min, OE18, ↓ down): 5.61↓
- STM fold change (BA 0.1 μM, 15 min, Wild type, ↑ up): 3.68↑
- STM fold change (BA 0.1 μM, 30 min, AS1, ↑ up): 4.79↑
- STM fold change (BA 0.1 μM, 30 min, AS8, ↑ up): 6.63↑
- STM fold change (BA 0.1 μM, 30 min, AS21, ↑ up): 8.58↑
- STM fold change (BA 0.1 μM, 30 min, OE1, ↓ down): 2.92↓
- STM fold change (BA 0.1 μM, 30 min, OE12, ↓ down): 3.49↓
- STM fold change (BA 0.1 μM, 30 min, OE18, ↓ down): 5.34↓
- STM fold change (BA 0.1 μM, 30 min, Wild type, ↑ up): 3.85↑
- STM fold change (BA 0.1 μM, 1 h, AS1, ↑ up): 4.97↑
- STM fold change (BA 0.1 μM, 1 h, AS8, ↑ up): 6.94↑
- STM fold change (BA 0.1 μM, 1 h, AS21, ↑ up): 8.87↑
- STM fold change (BA 0.1 μM, 1 h, OE1, ↓ down): 2.76↓
- STM fold change (BA 0.1 μM, 1 h, OE12, ↓ down): 3.01↓
- STM fold change (BA 0.1 μM, 1 h, OE18, ↓ down): 5.01↓
- STM fold change (BA 0.1 μM, 1 h, Wild type, ↑ up): 3.96↑
- STM fold change (BA 1.0 μM, 5 min, AS1, ↑ up): 5.53↑
- STM fold change (BA 1.0 μM, 5 min, AS8, ↑ up): 7.8↑
- STM fold change (BA 1.0 μM, 5 min, AS21, ↑ up): 8.89↑
- STM fold change (BA 1.0 μM, 5 min, OE1, ↓ down): 2.86↓
- STM fold change (BA 1.0 μM, 5 min, OE12, ↓ down): 2.89↓
- STM fold change (BA 1.0 μM, 5 min, OE18, ↓ down): 4.26↓
- STM fold change (BA 1.0 μM, 5 min, Wild type, ↑ up): 4.11↑
- STM fold change (BA 1.0 μM, 15 min, AS1, ↑ up): 5.78↑
- STM fold change (BA 1.0 μM, 15 min, AS8, ↑ up): 7.93↑
- STM fold change (BA 1.0 μM, 15 min, AS21, ↑ up): 9.02↑
- STM fold change (BA 1.0 μM, 15 min, OE1, ↓ down): 2.61↓
- STM fold change (BA 1.0 μM, 15 min, OE12, ↓ down): 2.56↓
- STM fold change (BA 1.0 μM, 15 min, OE18, ↓ down): 4.11↓
- STM fold change (BA 1.0 μM, 15 min, Wild type, ↑ up): 4.36↑
- STM fold change (BA 1.0 μM, 30 min, AS1, ↑ up): 5.83↑
- STM fold change (BA 1.0 μM, 30 min, AS8, ↑ up): 7.99↑
- STM fold change (BA 1.0 μM, 30 min, AS21, ↑ up): 9.25↑
- STM fold change (BA 1.0 μM, 30 min, OE1, ↓ down): 2.39↓
- STM fold change (BA 1.0 μM, 30 min, OE12, ↓ down): 2.87↓
- STM fold change (BA 1.0 μM, 30 min, OE18, ↓ down): 4.01↓
- STM fold change (BA 1.0 μM, 30 min, Wild type, ↑ up): 4.69↑
- STM fold change (BA 1.0 μM, 1 h, AS1, ↑ up): 6.21↑
- STM fold change (BA 1.0 μM, 1 h, AS8, ↑ up): 8.07↑
- STM fold change (BA 1.0 μM, 1 h, AS21, ↑ up): 9.66↑
- STM fold change (BA 1.0 μM, 1 h, OE1, ↓ down): 2.11↓
- STM fold change (BA 1.0 μM, 1 h, OE12, ↓ down): 2.62↓
- STM fold change (BA 1.0 μM, 1 h, OE18, ↓ down): 3.82↓
- STM fold change (BA 1.0 μM, 1 h, Wild type, ↑ up): 4.97↑
- STM fold change (BA 5.0 μM, 5 min, AS1, ↑ up): 6.01↑
- STM fold change (BA 5.0 μM, 5 min, AS8, ↑ up): 8.46↑
- STM fold change (BA 5.0 μM, 5 min, AS21, ↑ up): 9.33↑
- STM fold change (BA 5.0 μM, 5 min, OE1, ↓ down): 2.29↓
- STM fold change (BA 5.0 μM, 5 min, OE12, ↓ down): 2.49↓
- STM fold change (BA 5.0 μM, 5 min, OE18, ↓ down): 3.35↓
- STM fold change (BA 5.0 μM, 5 min, Wild type, ↑ up): 5.62↑
- STM fold change (BA 5.0 μM, 15 min, AS1, ↑ up): 6.21↑
- STM fold change (BA 5.0 μM, 15 min, AS8, ↑ up): 8.63↑
- STM fold change (BA 5.0 μM, 15 min, AS21, ↑ up): 9.44↑
- STM fold change (BA 5.0 μM, 15 min, OE1, ↓ down): 2.11↓
- STM fold change (BA 5.0 μM, 15 min, OE12, ↓ down): 2.13↓
- STM fold change (BA 5.0 μM, 15 min, OE18, ↓ down): 3.28↓
- STM fold change (BA 5.0 μM, 15 min, Wild type, ↑ up): 5.89↑
- STM fold change (BA 5.0 μM, 30 min, AS1, ↑ up): 6.43↑
- STM fold change (BA 5.0 μM, 30 min, Wild type, ↑ up): 5.99↑
- STM transcripts, dose dependence (BA 0.01-5 μM pulse, 5 min-1 h): dose-dependent increase
